Data reported in patent US8030543B2, “Efficient transformation method for sunflower and oil seeds based on positive selection” (Avesthagen Limited, priority 2006, dated 2011).

What was measured:
[1] = tested on: Helianthus annuus CMS234B split embryonic axis (SEA) explants; experiment: Positive selection and regeneration of sunflower SEA explants transformed with pCAMBIA-XI on media containing Xylose; assay type: cell-based; details: for No of PCR +ve explants / No. of explants Regenerating into shootlets / No. of explants surviving I selection (15 days) / No. of explants surviving I selection (21 days) / No. of explants surviving II selection (15 days) / PCR +ve Regenerants: 100 explants infected, pCAMBIA-XI
Description: The seeds were sterilized and the split embryonic axis isolated as described earlier. […] Agrobacterium cells from the glycerol stock were grown overnight in Luria-Bertani (LB) medium containing Rifampicin (10 μg/ml), Gentamycin (10 μg/ml) and Kanamycin (50 μg/ml) and grown exponentially for a period of 4-6 hrs to reach O.D600=1.0. The cells were centrifuged at 6000 rpm for 5 min at 4° C. and then washed and resuspended in MS liquid to reach an O.D600 of 1.0. The excised explants were immediately transferred to a vacuum infiltration flask containing 25 ml of the resuspended culture. Vacuum at 200 atm pressure for 15 min was applied and quickly released. The culture was then drained off completely and explants collected on a blotting paper. […] After two days of co-cultivation, the explants were washed thoroughly with Murashige and Skoog (1972) liquid medium containing Cefotaxime 250 mg/l. […] After the selection period the shoots were subcultured onto Elongation medium containing ½ Strength MS medium. […] The explants surviving first selection were transferred for a second selection to the same medium for 21 days. Explants were subsequently transferred to their respective elongation media. Healthy shootlets were transferred to their respective rooting media.

[2] = tested on: sunflower CMS234B SEA explants; experiment: Screening for capability to utilize xylose as carbon source (untransformed SEA explants); assay type: cell-based, Helianthus annuus; details: MS medium with 0.5 mg/l BAP, 3% Xylose as carbon source
Description: In order to determine if sunflower is capable of using xylose as the carbon source, explants were cultured on regeneration media containing sucrose and xylose respectively.

O=C[C@H](O)[C@@H](O)[C@H](O)CO [Xylose, D-Xylose]
No of PCR +ve explants ([1]; Xylose Conc. 15 (mg/l)): 28
No. of explants Regenerating into shootlets ([1]; Xylose Conc. 15 (mg/l)): 20
No. of explants surviving I selection (15 days) ([1]; Xylose Conc. 15 (mg/l)): 80
No. of explants surviving I selection (21 days) ([1]; Xylose Conc. 15 (mg/l)): 70
No. of explants surviving II selection (15 days) ([1]; Xylose Conc. 15 (mg/l)): 60
PCR +ve Regenerants ([1]; Xylose Conc. 15 (mg/l)): 10
No of PCR +ve explants ([1]; Xylose Conc. 20 (mg/l)): 30
No. of explants Regenerating into shootlets ([1]; Xylose Conc. 20 (mg/l)): 12
No. of explants surviving I selection (15 days) ([1]; Xylose Conc. 20 (mg/l)): 72
No. of explants surviving I selection (21 days) ([1]; Xylose Conc. 20 (mg/l)): 65
No. of explants surviving II selection (15 days) ([1]; Xylose Conc. 20 (mg/l)): 57
PCR +ve Regenerants ([1]; Xylose Conc. 20 (mg/l)): 7
No of PCR +ve explants ([1]; Xylose Conc. 25 (mg/l)): 28
No. of explants Regenerating into shootlets ([1]; Xylose Conc. 25 (mg/l)): 7
No. of explants surviving I selection (15 days) ([1]; Xylose Conc. 25 (mg/l)): 65
No. of explants surviving I selection (21 days) ([1]; Xylose Conc. 25 (mg/l)): 55
No. of explants surviving II selection (15 days) ([1]; Xylose Conc. 25 (mg/l)): 40
PCR +ve Regenerants ([1]; Xylose Conc. 25 (mg/l)): 6
No of PCR +ve explants ([1]; Xylose Conc. 30 (mg/l)): 18
No. of explants Regenerating into shootlets ([1]; Xylose Conc. 30 (mg/l)): 5
No. of explants surviving I selection (15 days) ([1]; Xylose Conc. 30 (mg/l)): 50
No. of explants surviving I selection (21 days) ([1]; Xylose Conc. 30 (mg/l)): 38
No. of explants surviving II selection (15 days) ([1]; Xylose Conc. 30 (mg/l)): 20
PCR +ve Regenerants ([1]; Xylose Conc. 30 (mg/l)): 5
green tissue of plantlets ([1]; plantlets grown on D-Xylose medium, compared to plantlets grown on Hygromycin): 90%
healthy shoots per explants ([1]; positive selection on Xylose): 2-3
time within which explants brown and die [2]: 2-3 weeks
